{"source": "ChEMBL document CHEMBL1201862", "about": "“PubChem BioAssay data set” (2004)", "key": {"[1]": {"molecular_target": "Photoreceptor-specific nuclear receptor (Homo sapiens, UniProt Q9Y5X4)", "sequence (Q9Y5X4 whole entry)": "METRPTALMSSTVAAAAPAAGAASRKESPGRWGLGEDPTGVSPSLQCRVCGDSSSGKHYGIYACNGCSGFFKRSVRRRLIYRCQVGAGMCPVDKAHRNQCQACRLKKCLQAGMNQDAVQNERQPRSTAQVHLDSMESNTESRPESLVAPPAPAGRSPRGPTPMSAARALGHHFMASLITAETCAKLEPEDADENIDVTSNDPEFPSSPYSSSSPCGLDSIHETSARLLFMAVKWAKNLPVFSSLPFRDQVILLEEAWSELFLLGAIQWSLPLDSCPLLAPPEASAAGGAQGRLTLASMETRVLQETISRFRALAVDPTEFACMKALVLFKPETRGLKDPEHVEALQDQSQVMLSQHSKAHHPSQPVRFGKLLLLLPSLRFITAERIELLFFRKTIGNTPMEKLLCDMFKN", "assay_type": "functional"}, "[2]": {"molecular_target": "T1, Endoribonuclease toxin MazF (Escherichia coli K-12, UniProt P0AE70)", "T1 sequence (P0AE70 whole entry)": "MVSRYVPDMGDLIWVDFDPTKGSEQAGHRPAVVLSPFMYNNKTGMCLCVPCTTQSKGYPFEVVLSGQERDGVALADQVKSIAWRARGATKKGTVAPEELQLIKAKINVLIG", "assay": "MazEF toxin-antitoxin RNase activation – biochemical, fluorescence, single-stranded RNA substrate, SAR follow-up (AID 588603)", "assay_type": "functional"}, "[3]": {"assay": "viability loss in THP-1 monocytes – THP-1 cells, cytotoxicity control for Vif-APOBEC3G degradation inhibitor project, dose response (AID 1117359)", "assay_type": "functional", "conditions": "THP-1"}, "Galanin receptor type 3": {"molecular_target": "T2, Galanin receptor type 3 (Homo sapiens, UniProt O60755)", "T2 sequence (O60755 whole entry)": "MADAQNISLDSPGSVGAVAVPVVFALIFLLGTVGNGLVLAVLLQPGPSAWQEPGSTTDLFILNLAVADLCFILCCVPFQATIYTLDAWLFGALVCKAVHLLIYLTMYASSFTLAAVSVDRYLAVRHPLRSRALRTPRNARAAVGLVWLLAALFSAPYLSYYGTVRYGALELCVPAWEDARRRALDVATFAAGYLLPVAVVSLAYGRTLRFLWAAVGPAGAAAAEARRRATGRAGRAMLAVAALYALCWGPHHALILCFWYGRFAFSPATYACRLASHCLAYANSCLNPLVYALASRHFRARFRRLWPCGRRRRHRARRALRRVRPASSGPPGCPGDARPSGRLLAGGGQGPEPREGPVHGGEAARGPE", "assay": "Fluorescence-based cell-based primary high throughput dose response assay to identify antagonists of the Galanin Receptor 3 (GalR3).", "assay_type": "functional"}, "[4]": {"molecular_target": "T3, Sentrin-specific protease 6 (Homo sapiens, UniProt Q9GZR1)", "T3 sequence (Q9GZR1 whole entry)": "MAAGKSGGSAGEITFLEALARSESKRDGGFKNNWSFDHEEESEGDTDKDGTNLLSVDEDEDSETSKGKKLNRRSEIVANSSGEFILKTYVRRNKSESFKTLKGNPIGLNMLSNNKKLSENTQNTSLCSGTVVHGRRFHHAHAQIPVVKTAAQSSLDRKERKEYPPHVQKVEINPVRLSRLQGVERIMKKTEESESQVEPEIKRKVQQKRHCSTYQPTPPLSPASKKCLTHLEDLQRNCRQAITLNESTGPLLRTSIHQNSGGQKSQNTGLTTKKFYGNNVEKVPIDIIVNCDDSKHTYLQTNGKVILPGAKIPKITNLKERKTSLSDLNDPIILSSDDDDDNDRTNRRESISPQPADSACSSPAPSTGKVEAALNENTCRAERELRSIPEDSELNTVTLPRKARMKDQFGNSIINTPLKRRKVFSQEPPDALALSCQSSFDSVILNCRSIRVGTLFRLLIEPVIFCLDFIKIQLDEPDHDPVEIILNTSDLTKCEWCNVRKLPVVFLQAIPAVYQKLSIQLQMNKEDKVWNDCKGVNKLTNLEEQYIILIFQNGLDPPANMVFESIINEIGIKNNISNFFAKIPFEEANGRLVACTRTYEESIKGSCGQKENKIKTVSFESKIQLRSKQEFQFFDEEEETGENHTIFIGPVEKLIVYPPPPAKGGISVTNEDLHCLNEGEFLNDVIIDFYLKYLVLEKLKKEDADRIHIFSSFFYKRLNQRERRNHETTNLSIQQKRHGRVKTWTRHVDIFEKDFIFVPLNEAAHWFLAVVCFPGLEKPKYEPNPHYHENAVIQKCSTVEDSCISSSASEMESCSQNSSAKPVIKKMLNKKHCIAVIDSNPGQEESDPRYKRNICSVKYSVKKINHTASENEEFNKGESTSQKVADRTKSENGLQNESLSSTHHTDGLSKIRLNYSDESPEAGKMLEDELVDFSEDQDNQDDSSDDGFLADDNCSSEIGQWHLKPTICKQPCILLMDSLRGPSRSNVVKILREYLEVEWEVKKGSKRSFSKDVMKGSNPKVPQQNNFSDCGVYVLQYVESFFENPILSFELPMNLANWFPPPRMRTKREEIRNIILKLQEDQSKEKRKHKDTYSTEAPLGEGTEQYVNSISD", "assay_type": "functional"}, "[5]": {"molecular_target": "Tyrosyl-DNA phosphodiesterase 2 (Homo sapiens, UniProt O95551)", "sequence (O95551 whole entry)": "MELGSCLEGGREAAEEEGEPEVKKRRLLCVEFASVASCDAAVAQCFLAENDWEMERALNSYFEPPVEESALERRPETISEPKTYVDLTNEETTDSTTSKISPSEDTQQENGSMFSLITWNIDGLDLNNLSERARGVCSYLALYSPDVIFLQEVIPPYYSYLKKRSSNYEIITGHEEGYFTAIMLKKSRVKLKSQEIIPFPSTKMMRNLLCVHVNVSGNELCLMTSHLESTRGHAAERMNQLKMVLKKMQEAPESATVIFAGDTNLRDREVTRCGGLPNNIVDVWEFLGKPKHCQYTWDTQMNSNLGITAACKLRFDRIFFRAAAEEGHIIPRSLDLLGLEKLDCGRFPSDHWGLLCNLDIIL", "assay": "potency against TDP2 phosphodiesterase activity – biochemical, epi absorbance, IC50, dose response (AID 743297)"}}, "note": "The source made the active and inactive calls.", "data": [{"compound": "Cc1nc2c(=O)n(C)c(=O)nc-2n(C)n1", "values": [{"measurement": "IC50", "setting": "[1]", "value": "> 39.8 µM (not active)"}]}, {"compound": "O=C1C=C(c2c(O)ccc3ccccc23)c2ccccc2C1=O", "values": [{"measurement": "EC50", "setting": "[2]", "value": "> 99 µM (inactive)"}, {"measurement": "CC50", "setting": "[3]", "value": "7.1 µM (active)"}, {"measurement": "IC50", "setting": "Galanin receptor type 3", "value": "> 3.32 µM (active)"}]}, {"compound": "Oc1nc(Nc2ccccc2Cl)cc2ccccc12", "values": [{"measurement": "IC50", "setting": "[4]", "value": "3.14 µM (active)"}, {"measurement": "IC50", "setting": "[5]", "value": "28.4 µM (inactive)"}]}]}
